From US11089783B2, “2-(het)aryl-substituted fused heterocycle derivatives as pesticides” (Bayer Aktiengesellschaft, priority 2017, dated 2021)

Experiments:
Assay type in all cases: in vivo
Tetranychus urticae = Tetranychus urticae spray test, OP-resistant (TETRUR)
In short: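 Bean leaf discs infested with all stages of OP-resistant Tetranychus urticae were sprayed with compound formulated in solvent and water containing 1000 ppm emulsifier. Efficacy was scored after 6 days as % mites killed (100% = all killed).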

Ctenocephalides felis [1] = experiment: Ctenocephalides felis oral test; conditions: 100 ppm, after 2 days
Procedure: Solvent: dimethyl sulfoxide To produce a suitable active ingredient formulation, 10 mg of active ingredient are mixed with 0.5 ml of dimethyl sulfoxide. Dilution with citrated cattle blood gives the desired concentration. About 20 unfed adult cat fleas (Ctenocephalides felis) are placed into a chamber which is closed at the top and bottom with gauze. A metal cylinder whose bottom end is closed with parafilm is placed onto the chamber. The cylinder contains the blood/active ingredient formulation, which can be imbibed by the fleas through the parafilm membrane. After 2 days, the kill in % is determined. 100% means that all of the fleas have been killed; 0% means that none of the fleas have been killed.

Phaedon cochleariae = Phaedon cochleariae spray test (PHAECO), Chinese cabbage leaf discs; conditions: Phaedon cochleariae, foliar, 168 h; for pest or weed control at 100 g/ha: 7 days (7 dat), read-out: efficacy
In short: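 Chinese cabbage (Brassica pekinensis) leaf discs sprayed with compound in water with 1000 ppm emulsifier, then after drying infested with Phaedon cochleariae larvae. Efficacy (% larvae killed) scored after 7 days or the chosen interval.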

Lucilia cuprina = Lucilia cuprina test; conditions: 48 h, L1 larvae, after 2 days, read-out: efficacy (kill)
In short: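 About 20 L1 larvae of Lucilia cuprina placed on minced horsemeat containing compound (DMSO stock diluted in water to test concentration). Kill (%) scored after 2 days; 100% = all larvae dead, 0% = none dead.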

Nezara viridula = Nezara viridula spray test (NEZARA / NEZAVI); conditions: Nezara viridula, 96 h, 4 g/ha, 4 dat, read-out: % efficacy
In short: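 Barley plants infested with Nezara viridula larvae were sprayed with active ingredient in solvent/emulsifier water (1000 ppm emulsifier; ammonium salt or penetrant at 1000 ppm if added). Efficacy scored as % mortality after the set time (100% = all bugs killed).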

Myzus persicae = Myzus persicae spray test (MYZUPE), Chinese cabbage leaf discs; conditions: Myzus persicae, foliar, 120 h; for Emax at 4 g/ha: MYZUPE, 5 dat, read-out: % efficacy
In short: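 Leaf discs of Chinese cabbage carrying all stages of green peach aphid were sprayed with compound formulated in solvent and diluted with water containing emulsifier at 1000 ppm. Percent efficacy (100% = all aphids dead) was scored after 5 days or after the desired time.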

Ctenocephalides felis [2] = experiment: Ctenocephalides felis in vitro contact test with adult cat fleas; conditions: 5 μg/cm^2 (=500 g/ha), after 48 h
Procedure: For the coating of the test tubes, 9 mg of active ingredient are first dissolved in 1 ml of acetone p.a. and then diluted to the desired concentration with acetone p.a. 250 μl of the solution are distributed homogeneously on the inner walls and the base of a 25 ml glass tube by turning and rocking on an orbital shaker (rocking rotation at 30 rpm for 2 h). With 900 ppm of active ingredient solution and internal surface area 44.7 cm^2, given homogeneous distribution, an area-based dose of 5 μg/cm^2 is achieved. After the solvent has evaporated off, the tubes are populated with 5-10 adult cat fleas (Ctenocephalides felis), sealed with a perforated plastic lid and incubated in a horizontal position at room temperature and ambient humidity. After 48 h, efficacy is determined. To this end, the tubes are stood upright and the fleas are knocked to the base of the tube. Fleas which remain motionless at the base or move in an uncoordinated manner are considered to be dead or moribund. […] 100% efficacy means that all the fleas were dead or moribund. 0% efficacy means that no fleas were harmed.

[3] = Tetranychus urticae, 144 h, TETRUR, 6 dat, read-out: % efficacy
[4] = 5 days (5 dat), read-out: efficacy

Row | Compound | efficacy (Tetranychus urticae; 4 g/ha, after 6 days) [%] | Emax at 20 g/ha (Tetranychus urticae; Tetranychus urticae, 144 h, TETRUR, 20 g/ha, 6 dat, read-out: % efficacy) [%] | Emax at 100 g/ha (Tetranychus urticae; [3]) [%] | efficacy (kill) (Ctenocephalides felis [1]) [%] | pest or weed control at 100 g/ha (Phaedon cochleariae) [%] | pest or weed control at 100 ppm (Lucilia cuprina) [%] | Emax at 4 g/ha (Nezara viridula) [%] | pest or weed control at 20 g/ha (Myzus persicae; [4]) [%] | pest or weed control at 100 g/ha (Myzus persicae; 100 g/ha, 5 days (5 dat), read-out: efficacy) [%] | efficacy (Ctenocephalides felis [2]) [%] | Emax at 4 g/ha (Phaedon cochleariae; PHAECO, 4 g/ha, 7 dat, read-out: % efficacy) [%] | percent efficacy (larval mortality) at a fixed application rate at 20 g/ha (Phaedon cochleariae; PHAECO, 7 dat) [%] | Emax at 4 g/ha (Myzus persicae) [%] | percent efficacy (larval mortality) at a fixed application rate at 4 g/ha (Phaedon cochleariae; PHAECO, 4 g/ha, 7 dat) [%]
1 | CCS(=O)(=O)c1ccc(NC(=O)NC)nc1-c1nc2cc(C(F)(F)C(F)(F)F)nnc2n1C [Example I-08, 1-{5-(ethylsulfonyl)-6-[7-methyl-3-(pentafluoroethyl)-7H-imidazo[4,5-c]pyridazin-6-yl]pyridin-2-yl}-3-methylurea] | 90 | 70 | 70 | 100 | 100 | 100 | 90 | 100 | 90 | – | – | – | – | –
2 | CCS(=O)(=O)c1ccc(N(C)C(=O)NC)nc1-c1nc2cc(C(F)(F)C(F)(F)F)nnc2n1C [Example I-09] | – | – | 70 | 100 | 100 | 100 | 70 | 100 | – | 100 | 83 | 100 | 70 | –
3 | CCS(=O)(=O)c1ccc(NC(=O)N(C)C)nc1-c1nc2cc(C(F)(F)C(F)(F)F)nnc2n1C [Example I-10] | – | – | 70 | 100 | 100 | 100 | 80 | 100 | – | 100 | – | – | 70 | –
4 | CCNC(=O)Nc1ccc(S(=O)(=O)CC)c(-c2nc3cc(C(F)(F)C(F)(F)F)nnc3n2C)n1 [Example I-13] | – | – | – | 100 | 100 | 100 | 80 | 90 | – | 100 | – | 100 | – | 100
